Data published in ChEMBL document CHEMBL1147331, “Cytotoxic and antimalarial bisbenzylisoquinoline alkaloids from Stephania erecta” (J Nat Prod, 1993).
In brackets after ≈: the same amount, converted by molar mass.

How the values were obtained:
in vitro [1] = details: mouse, P388 cells
Description: Selectivity index, ratio of ED50 for mice (Mus musculus) P388 cells to ED50 for chloroquine-resistant Plasmodium falciparum W2

in vitro [2] = details: human, A431 cells
Description: Selectivity index, ratio of ED50 for human A431 cells to ED50 for chloroquine-sensitive Plasmodium falciparum D6

[3] = Cytotoxicity against human LUC1 cells after 3 days by sulforhodamine B assay; assay type: cell-based; details: read-out: ED50
[4] = Selectivity index, ratio of ED50 for human BCA1 cells to ED50 for chloroquine-sensitive Plasmodium falciparum D6; assay type: toxicity, cell-based; details: read-out: Ratio ED50
[5] = Selectivity index, ratio of ED50 for human MEL2 cells to ED50 for chloroquine-sensitive Plasmodium falciparum D6; assay type: toxicity, cell-based; details: read-out: Ratio ED50
Plasmodium falciparum [6] = test: Antimalarial activity after 24 hrs against chloroquine-sensitive Plasmodium falciparum D6 infected type A+ human erythrocytes by [3H]hypoxanthine uptake; assay type: functional; details: read-out: ED50 (the source's name)
[7] = Selectivity index, ratio of ED50 for human LUC1 cells to ED50 for chloroquine-sensitive Plasmodium falciparum D6; assay type: toxicity, cell-based; details: read-out: Ratio ED50
[8] = Selectivity index, ratio of ED50 for human KB-V1 cells to ED50 for chloroquine-sensitive Plasmodium falciparum D6; assay type: toxicity, cell-based; details: read-out: Ratio ED50
[9] = Selectivity index, ratio of ED50 for human LNCaP cells to ED50 for chloroquine-resistant Plasmodium falciparum W2; assay type: toxicity, cell-based; details: read-out: Ratio ED50
[10] = Cytotoxicity against human KBV1 cells after 3 days by sulforhodamine B assay; assay type: cell-based, KB-V1; details: read-out: ED50
[11] = Cytotoxicity against mouse P388 cells after 2 days by sulforhodamine B assay; assay type: cell-based; details: read-out: ED50
[12] = Cytotoxicity against human BCA1 cells after 3 days by sulforhodamine B assay; assay type: cell-based; details: read-out: ED50
[13] = Cytotoxicity against human ZR-75-1 cells after 3 days by sulforhodamine B assay; assay type: cell-based; details: read-out: ED50
[14] = Selectivity index, ratio of ED50 for human HT1080 cells to ED50 for chloroquine-resistant Plasmodium falciparum W2; assay type: toxicity, cell-based, HT-1080; details: read-out: Ratio ED50
[15] = Selectivity index, ratio of ED50 for human LUC1 cells to ED50 for chloroquine-resistant Plasmodium falciparum W2; assay type: toxicity, cell-based; details: read-out: Ratio ED50
[16] = Cytotoxicity against human HT1080 cells after 3 days by sulforhodamine B assay; assay type: cell-based, HT-1080; details: read-out: ED50
[17] = Cytotoxicity against human Col1 cells after 3 days by sulforhodamine B assay; assay type: cell-based; details: read-out: ED50
[18] = Selectivity index, ratio of ED50 for human LNCaP cells to ED50 for chloroquine-sensitive Plasmodium falciparum D6; assay type: toxicity, cell-based; details: read-out: Ratio ED50
[19] = Selectivity index, ratio of ED50 for human KB cells to ED50 for chloroquine-resistant Plasmodium falciparum W2; assay type: toxicity, cell-based; details: read-out: Ratio ED50
in vitro [20] = details: human, A431 cells; remark: listed apart in the source
Description: Selectivity index, ratio of ED50 for human A431 cells to ED50 for chloroquine-resistant Plasmodium falciparum W2

[21] = Cytotoxicity against human KB cells after 3 days by sulforhodamine B assay; assay type: cell-based; details: read-out: ED50
[22] = Cytotoxicity against human A431 cells after 3 days by sulforhodamine B assay; assay type: cell-based, A-431; details: read-out: ED50
in vitro [23] = details: mouse, P388 cells; remark: listed apart in the source
Description: Selectivity index, ratio of ED50 for mice (Mus musculus) P388 cells to ED50 for chloroquine-sensitive Plasmodium falciparum D6

[24] = Selectivity index, ratio of ED50 for human HT1080 cells to ED50 for chloroquine-sensitive Plasmodium falciparum D6; assay type: toxicity, cell-based, HT-1080; details: read-out: Ratio ED50
[25] = Selectivity index, ratio of ED50 for human KB cells to ED50 for chloroquine-sensitive Plasmodium falciparum D6; assay type: toxicity, cell-based; details: read-out: Ratio ED50
[26] = Cytotoxicity against human SK-MEL-2 cells after 3 days by sulforhodamine B assay; assay type: cell-based; details: read-out: ED50
[27] = Cytotoxicity against human LNCAP cells after 3 days by sulforhodamine B assay; assay type: cell-based; details: read-out: ED50
[28] = Selectivity index, ratio of ED50 for human ZR-75-1 cells to ED50 for chloroquine-sensitive Plasmodium falciparum D6; assay type: toxicity, cell-based; details: read-out: Ratio ED50
[29] = Selectivity index, ratio of ED50 for human COL1 cells to ED50 for chloroquine-resistant Plasmodium falciparum W2; assay type: toxicity, cell-based; details: read-out: Ratio ED50
[30] = Selectivity index, ratio of ED50 for human ZR-75-1 cells to ED50 for chloroquine-resistant Plasmodium falciparum W2; assay type: toxicity, cell-based; details: read-out: Ratio ED50
Plasmodium falciparum [31] = test: Antimalarial activity after 24 hrs against chloroquine-resistant Plasmodium falciparum W2 infected type A+ human erythrocytes by [3H]hypoxanthine uptake; assay type: functional; details: read-out: ED50 (the source's name)
[32] = Selectivity index, ratio of ED50 for human KB-V1 cells to ED50 for chloroquine-resistant Plasmodium falciparum W2; assay type: toxicity, cell-based; details: read-out: Ratio ED50
[33] = Selectivity index, ratio of ED50 for human COL1 cells to ED50 for chloroquine-sensitive Plasmodium falciparum D6; assay type: toxicity, cell-based; details: read-out: Ratio ED50
[34] = Selectivity index, ratio of ED50 for human BCA1 cells to ED50 for chloroquine-resistant Plasmodium falciparum W2; assay type: toxicity, cell-based; details: read-out: Ratio ED50
[35] = Selectivity index, ratio of ED50 for human MEL2 cells to ED50 for chloroquine-resistant Plasmodium falciparum W2; assay type: toxicity, cell-based; details: read-out: Ratio ED50

SMILES | selectivity ratio (in vitro [1]) | selectivity ratio (in vitro [2]) | CC50 at 72 h [3] | selectivity ratio [4] | selectivity ratio [5] | EC50 (Plasmodium falciparum [6]) | selectivity ratio [8] | CC50 at 72 h [10] | CC50 at 48 h [11] | CC50 at 72 h [12] | CC50 at 72 h [13] | CC50 at 72 h [16] | CC50 at 72 h [17] | CC50 at 72 h [21] | CC50 at 72 h [22] | CC50 at 72 h [26] | CC50 at 72 h [27] | selectivity ratio [28] | selectivity ratio [30] | EC50 (Plasmodium falciparum [31]) | further results
COc1ccc2cc1Oc1ccc(cc1)C[C@H]1c3cc(c(OC)cc3CCN1C)Oc1c(O)c(OC)cc3c1[C@@H](C2)NCC3 | 1 | 61 | 8.4 µg/mL (≈ 14.1 µM) | 60 | 225 | 0.0686 µg/mL (≈ 0.115 µM) | 118 | 8.1 µg/mL (≈ 13.6 µM) | 0.1 µg/mL (≈ 0.168 µM) | 4.1 µg/mL (≈ 6.89 µM) | 1.2 µg/mL (≈ 2.02 µM) | 2.2 µg/mL (≈ 3.7 µM) | 4.7 µg/mL (≈ 7.9 µM) | 6.3 µg/mL (≈ 10.6 µM) | 4.2 µg/mL (≈ 7.06 µM) | 15.4 µg/mL (≈ 25.9 µM) | 6.6 µg/mL (≈ 11.1 µM) | 23 | 13 | 0.125 µg/mL (≈ 0.21 µM) | selectivity ratio [7]: 123; selectivity ratio [9]: 53; selectivity ratio [14]: 18; selectivity ratio [15]: 67; selectivity ratio [18]: 97; selectivity ratio [19]: 50; selectivity ratio (in vitro [20]): 34; selectivity ratio (in vitro [23]): 2; selectivity ratio [24]: 32; selectivity ratio [25]: 92; selectivity ratio [29]: 38; selectivity ratio [32]: 65; selectivity ratio [33]: 69; selectivity ratio [34]: 33
COc1ccc2cc1Oc1ccc(cc1)C[C@H]1c3c(cc(O)c(OC)c3Oc3cc4c(cc3OC)CCN(C)[C@@H]4C2)CCN1C | 76 |  | 8.6 µg/mL (≈ 14.1 µM) |  |  | 0.13 µg/mL (≈ 0.214 µM) |  | 7.4 µg/mL (≈ 12.2 µM) | 3.7 µg/mL (≈ 6.08 µM) | 4.7 µg/mL (≈ 7.72 µM) | 2.1 µg/mL (≈ 3.45 µM) | 7.2 µg/mL (≈ 11.8 µM) | 7.5 µg/mL (≈ 12.3 µM) | 6.4 µg/mL (≈ 10.5 µM) | 8.9 µg/mL (≈ 14.6 µM) | 12.8 µg/mL (≈ 21 µM) | 8.3 µg/mL (≈ 13.6 µM) | 4 | 43 | 0.31 µg/mL (≈ 0.509 µM) | 
COc1ccc2cc1Oc1ccc(cc1)C[C@H]1c3c(cc4c(c3Oc3cc5c(cc3OC)CCN[C@@H]5C2)OCO4)CCN1C | 1 | 39 | 2 µg/mL (≈ 3.37 µM) | 36 | 225 | 0.0466 µg/mL (≈ 0.0786 µM) | 30 | 1.4 µg/mL (≈ 2.36 µM) | 0.1 µg/mL (≈ 0.169 µM) | 1.7 µg/mL (≈ 2.87 µM) | 0.9 µg/mL (≈ 1.52 µM) | 1.9 µg/mL (≈ 3.21 µM) | 3.1 µg/mL (≈ 5.23 µM) | 3.9 µg/mL (≈ 6.58 µM) | 1.8 µg/mL (≈ 3.04 µM) | 10.5 µg/mL (≈ 17.7 µM) | 3 µg/mL (≈ 5.06 µM) | 19 | 7 | 0.129 µg/mL (≈ 0.218 µM) | selectivity ratio [7]: 43; selectivity ratio [9]: 23; selectivity ratio [14]: 15; selectivity ratio [15]: 16; selectivity ratio [18]: 64; selectivity ratio [19]: 30; selectivity ratio (in vitro [20]): 14; selectivity ratio [35]: 81; selectivity ratio (in vitro [23]): 2; selectivity ratio [24]: 41; selectivity ratio [25]: 84; selectivity ratio [29]: 24; selectivity ratio [32]: 11; selectivity ratio [33]: 67; selectivity ratio [34]: 13
COc1ccc2cc1Oc1ccc(cc1)C[C@H]1c3c(cc(OC)c(OC)c3Oc3cc4c(cc3OC)CCN[C@@H]4C2)CCN1C | 37 | 133 | 8.8 µg/mL (≈ 14.5 µM) | 70 | 316 | 0.0459 µg/mL (≈ 0.0754 µM) | 44 | 2 µg/mL (≈ 3.29 µM) | 3.5 µg/mL (≈ 5.75 µM) | 3.2 µg/mL (≈ 5.26 µM) | 1.9 µg/mL (≈ 3.12 µM) | 7.4 µg/mL (≈ 12.2 µM) | 5.5 µg/mL (≈ 9.04 µM) | 6 µg/mL (≈ 9.86 µM) | 6.1 µg/mL (≈ 10 µM) | 14.5 µg/mL (≈ 23.8 µM) | 3.7 µg/mL (≈ 6.08 µM) | 41 | 20 | 0.0937 µg/mL (≈ 0.154 µM) | selectivity ratio [7]: 192; selectivity ratio [9]: 40; selectivity ratio [14]: 79; selectivity ratio [15]: 94; selectivity ratio [18]: 81; selectivity ratio [19]: 64; selectivity ratio (in vitro [20]): 65; selectivity ratio [35]: 155; selectivity ratio (in vitro [23]): 76; selectivity ratio [24]: 161; selectivity ratio [25]: 131; selectivity ratio [29]: 59; selectivity ratio [32]: 21; selectivity ratio [33]: 120; selectivity ratio [34]: 34
CCN(CC)CCCC(C)Nc1ccnc2cc(Cl)ccc12 (stereo not given) [CHLOROQUINE] |  |  | > 20 µg/mL |  |  | 0.0025 µg/mL (≈ 0.00782 µM) |  | 7.8 µg/mL (≈ 24.4 µM) | > 5 µg/mL | > 20 µg/mL | 15.8 µg/mL (≈ 49.4 µM) | 6.5 µg/mL (≈ 20.3 µM) | 10.1 µg/mL (≈ 31.6 µM) | 17.4 µg/mL (≈ 54.4 µM) | > 20 µg/mL | > 20 µg/mL | 14.3 µg/mL (≈ 44.7 µM) |  |  | 0.0317 µg/mL (≈ 0.0991 µM) | 
OC(c1cc(C(F)(F)F)nc2c(C(F)(F)F)cccc12)C1CCCCN1 (stereo not given) [MEFLOQUINE] | 166 | 333 | 7.7 µg/mL (≈ 20.4 µM) | 588 | 989 | 0.009 µg/mL (≈ 0.0238 µM) | 122 | 1.1 µg/mL (≈ 2.91 µM) | 0.2 µg/mL (≈ 0.529 µM) | 5.3 µg/mL (≈ 14 µM) | 1.2 µg/mL (≈ 3.17 µM) | 2.3 µg/mL (≈ 6.08 µM) | 1 µg/mL (≈ 2.64 µM) | 3.5 µg/mL (≈ 9.25 µM) | 3 µg/mL (≈ 7.93 µM) | 8.9 µg/mL (≈ 23.5 µM) | 2.3 µg/mL (≈ 6.08 µM) | 300 | 2250 | 0.0012 µg/mL (≈ 0.00317 µM) | selectivity ratio [9]: 1920; selectivity ratio [14]: 1920; selectivity ratio [18]: 256; selectivity ratio (in vitro [20]): 2500; selectivity ratio [35]: 7420; selectivity ratio (in vitro [23]): 22; selectivity ratio [24]: 256; selectivity ratio [25]: 389; selectivity ratio [29]: 833; selectivity ratio [32]: 917; selectivity ratio [33]: 111; selectivity ratio [34]: 4420
